Experimental data published in patent EP4640694A1, “SELF-ASSEMBLING PEPTIDE” (CYTOPORT (TIANJIN) BIOTECHNOLOGY CO., LTD, priority 2022, dated 2025).
Where a SMILES comes first, the peptide text is derived from it. [ ]: non-standard residue; d: D form. Hyp = O=C(O)[C@@H]1C[C@@H](O)CN1

What was measured:
HepG2 cells = assay: Cytocompatibility: relative viability (CCK-8) and cell counting over 5 days; assay type: cell-based; details: 0.1%, 0.3%, 0.5%, 0.7% peptide, 5 days without medium change
Experimental: The method in Experiment I for preparing a cell suspension at a concentration of 5×10^5 cells/mL was used to prepare a cell suspension at a concentration of 5×10^4 cells/mL. The cells obtained at a concentration of 5×10^4 cells/mL were inoculated into 96-well plates with each well containing about 5,000 cells. In the experimental groups, the self-assembling peptide sol prepared according to the method in Example 2 was added to achieve the concentrations of polypeptide of 0.1%, 0.3%, 0.5%, and 0.7% in the final system. In the control group, an equal volume of PBS buffer was added to replace the peptide solution, respectively. […] During the experiment, 10% of the culture volume of CCK-8 kit was added every 24 hours, and after incubation for 30 minutes, the OD values of each group were measured using an enzyme labeler (parameter setting: primary wavelength of 450 nm, secondary wavelength of 630 nm), and all experiments were set up with 5 parallel groups, and the results of the experiments were shown in Figure 9A. Relative cell viability was calculated using the formula below: Relative cell viability (%) = (At−A0t)/(A1−A01) × 100%; [formula]
Wherein At is the average OD values measured after t days of culturing cells. A0t is the average value of blank background measured after t days. […]

HepG2 = assay: Cell condition after culture: 5-day viability of cells harvested from spheroids; assay type: cell-based; details: cells harvested after 15 days in 0.1 wt.% peptide, 5-day viability test
From the text: In this experiment, cell spheroids cultured in Experiment III using the polypeptides as shown in SEQ ID NO.: 13 (IIIIIGOGIIGPGGEGPGGE) of the present invention at a concentration of 0.1 wt.% initiated by high-glucose medium were collected by centrifugation and digested into single cells. The applicability of the material of the present invention in cell culture and biomedical field were further evaluated by comparing the cell viability of cells cultured with the material of the present invention with that of cells cultured without the material of the present invention.
The cell spheroids in Experiment III were collected by centrifugation after 15 days of culture, and the cell spheroids were digested into single cells using trypsin, then centrifuged and collected, and an appropriate amount of high-glucose medium was added to the collected cells to prepare cell suspensions at concentrations of 5×10^5 and 5×10^4 cells/mL. Cell suspensions at a concentration of 5 ×10^4 cells/mL were inoculated into 96-well plates so that each well contained 5,000 cells. A cell suspension at a concentration of 5×10^4 cells/mL was prepared according to the method in […] for preparing a cell suspension at a concentration of 5×10^5 cells/mL and it was inoculated into a 96-well plate so that each well contained 5,000 cells, which served as a control group for this experiment. […]

[1] = test system: mouse mesenchymal stem cells; assay: Cell storage at 4°C, Calcein-AM/PI live/dead staining by flow cytometry; assay type: cell-based; details: for survival rate of mouse mesenchymal stem cells: 3D storage group, 0.05% peptide
Experimental: Experimental Methods: Storage of mouse mesenchymal stem cells at 4°C was taken as an example in this experiment. The isolated mouse mesenchymal stem cells were mixed well by pipetting, […] aliquots were dispensed into freezing tubes, and mixed well by pipetting so that their cell concentration was about 1×10^6 cells/mL. In 3D group, mouse serum, 1% of double antibody of 50% MAP+50% SFEM storage solution and the polypeptide as shown in SEQ ID NO.:20 (FLIVIGOGIIGOGGEGPGGE) were added to a final concentration of 0.05%. In 2D group, mouse serum and 1% of double antibody of 50% MAP+50% SFEM storage solution were added, followed by storage in a 4°C refrigerator.
Cell viability test: • (1) The preserved cells were thoroughly pipetted and mixed well, 500 µL of each cell suspension was taken into a 1.5 mLEP tube, PBS was added for washing, followed by centrifugation at 1,500 rpm for 10 minutes; and • (2) The supernatant was discarded, and the cells were resuspended in 150 µL of 1% PBA solution. Then, 150 µL of live/dead cell staining working solution was added, mixed thoroughly, and incubated at 37°C in a light-protected manner for 15 minutes. The samples were analyzed using a flow cytometer.

[2] = Rheological experiment, energy storage modulus (G') of peptide/serum mixture; assay type: physicochemical; details: 0.5% peptide, 10 v/v% fetal bovine serum, neutral pH
From the text: Experimental Methods: Preparation of Self-Assembling Peptide Material Samples: 2 wt% of the self-assembling peptide solution obtained in Example 2 was used, the sequences as shown in SEQ ID NO:1 (IIIIGSIIGPGGDGPGGV), SEQ ID NO:2 (IIIIGSIIGPGGEGPGGV), SEQ ID NO:3 (IIIIGSIIGOGGEGPGGV), SEQ ID NO:4 (IIIIGSIIGOGGGEGPGGV), SEQ ID NO:5 (IIIIGSIIGOGGEGPGGGV), SEQ ID NO:6 (IIIIGSIIGOGGEGPGV), SEQ ID NO:7 (IIIIGSIIGOGAEGPGGV), SEQ ID NO:8 (IIIIIGSIIOGGAEGPGGV), SEQ ID NO:9 (IIIIIGSIIGOGGVGPGGV), and SEQ ID NO: 10 (IIIIIIGSIIGOGAEGPGGVGPGGV).
Preparation of hydrogel samples formed by self-assembling peptide solutions in response to cell complete medium: 2 wt% of stock solution of self-assembling peptides obtained in Example 2 was diluted with phosphate buffer, added by fetal bovine serum to achieve a mixture solution with a final concentration of self-assembling peptide of 0.5%, a final concentration of serum of 10 v/v% with a neutral pH.
The energy storage modulus (G') of the mixture solution was measured on a 20 mm plate using MARS 60 rheometer. In order to determine the rate of formation of three-dimensional nanomatrix, the solution was placed on a plate for testing immediately after preparation. A gap of 500µm was used, mineral oil was added to the gap to prevent dehydration of the samples, and data collection commenced immediately. Dynamic Time-Scanning experiment (DTS) was performed to monitor changes in energy storage modulus (G') with time (1 Hz frequency, 1% strain) for 2000 min.

erythrocytes [3] = assay: Erythrocyte support by different sequences under liquid conditions; assay type: cell-based; details: 0.01 wt% peptide, 0.1 wt% fibronectin, 1×10^8 erythrocytes
Experimental: Experimental Methods: PBS buffer was used to separately prepare a concentration of 0.1 wt% stock solutions of self-assembling peptides as shown in SEQ ID NO.: 1 (IIIIIGSIIGPGGDGPGGV), SEQ ID NO.: 2 (IIIIIGSIIGPGGEGPGGV), SEQ ID NO.: 3 (IIIIIGSIIGOGGEGPGGV), and SEQ ID NO.: 7 (IIIIIGSIIGOGAEGPGGV). These solutions were autoclaved.
Using 2 mL clear glass vials, 4 materials were prepared at concentrations of 0.1 wt%, 0.05 wt%, and 0.01 wt% in 2 mL of self-assembling peptide solution (containing a final concentration of 0.1 wt% of fibronectin) and a blank group (without self-assembling peptide solution, but containing 0.1 wt% of fibronectin). A stock solution of at a concentration of 5×10^9 erythrocytes was added to each sample to a final concentration of 1×10^8, and the mixture was homogenized by pipetting. Photographs were taken every 4 hours to compare the effects of different materials on the support for erythrocytes.

erythrocytes [4] = assay: Erythrocyte support experiment with different initiator components; assay type: cell-based
Experimental: Experimental Methods: […] of erythrocyte stock solution (9.17×10^9/mL) was taken and diluted to 10 mL (9.17×10^7/mL) with 10 mM PBS, 4.5mL of erythrocyte dilution was added to a 10 ml of round-bottom tube and 4.5 mL of 4 mmol/L Calcein-AM solution was added, and the mixture was incubated at 37°C for 20 min and then centrifuged at 4°C, 1500r/min for 3 min. The supernatant was removed, and the pellet was resuspended in PBS, and repeated for 5 times to obtain about 1.5 mL of washed erythrocyte resuspension (1×10^8/mL) for latter use.
Experimental Results: PBS buffer was added to the erythrocyte resuspension solution to dilute the erythrocytes to 1×10^7/mL, and the mixture was allowed to stand for 4 hours, and the result was shown in Tube A in Figure 6.
The 1 wt% of self-assembling peptide solution (SEQ ID NO.:3) obtained in Example 2 was added ro make the final peptide concentration in the system of 0.05 wt% and the final concentration of erythrocytes of 1×10^7/mL, and the mixture was allowed to stand for 4 hours, and the result was shown in Tube B in Figure 6.
The mixed solution of polypeptide as shown in SEQ ID NO.:3 with lysine obtained in Example 3 was added to the erythrocytes resuspension solution, i.e., the polypeptide formed a three-dimensional network scaffold material in the presence of lysine, achieving a final peptide concentration in the system of 0.05 wt.%, mixing well and standing, and the result was shown in Tube C in Figure 6.
(§1) The mixted solution of self-assembling peptide as shown in SEQ ID NO.:3 with gentamicin obtained in Example 2 was added to the erythrocytes resuspension solution, i.e., the polypeptide formed the three-dimensional network scaffold material in the presence of gentamicin, achieving a final peptide concentration in the system of 0.05 wt.%, mixing well and standing, and the result was shown in Tube D in Figure 6.
as §1, with “with polylysine” for “with gentamicin”, “the self-assembling peptide” for “the polypeptide”, “of polylysine,” for “of gentamicin,”, “Tube E” for “Tube D”
as §1, with “with fibrinogen” for “with gentamicin”, “Example 3” for “Example 2”, “the self-assembling peptide” for “the polypeptide”, “of fibrinogen,” for “of gentamicin,”, “Tube F” for “Tube D”

In the case of `CC[C@H](C)[C@H](N)C(=O)N[C@H](C(=O)N[C@H](C(=O)N[C@H](C(=O)N[C@H](C(=O)NCC(=O)N1C[C@H](O)C[C@H]1C(=O)NCC(=O)N[C@H](C(=O)N[C@H](C(=O)NCC(=O)N1CCC[C@H]1C(=O)NCC(=O)NCC(=O)N[C@@H](CCC(=O)O)C(=O)NCC(=O)N1CCC[C@H]1C(=O)NCC(=O)NCC(=O)N[C@@H](CCC(=O)O)C(=O)O)[C@@H](C)CC)[C@@H](C)CC)[C@@H](C)CC)[C@@H](C)CC)[C@@H](C)CC)[C@@H](C)CC` [SEQ ID NO.: 13, IIIIIGOGIIGPGGEGPGGE] (H-IIIIIG[Hyp]GIIGPGGEGPGGE-OH), the “growth curve (cell counting) over 5 days” value (HepG2 cells) was “grew with a relatively uniform and stable proliferation rate”, the “relative cell viability over 5 days (CCK-8)” value (HepG2 cells) was “uniform and continuous steady increase in cell viability” and the “cell viability of harvested cells compared with control group” value (HepG2) was “slightly better than that of the control group”.
With FLIVIGOGIIGOGGGEGPGGE [SEQ ID NO.: 20] the “survival rate of mouse mesenchymal stem cells” value ([1]; day 3 of storage (2D group 67%)) was 79%, the “survival rate of mouse mesenchymal stem cells” value ([1]; day 5 of storage (2D group 43%)) was 71% and the “increase in survival versus 2D storage” value ([1]; day 5 of storage) was about 30%.
In the case of IIIIGSIIGOGGGEGPGGV [SEQ ID NO.: 4], the “hydrogel structure and elasticity in response to serum” value (“hydrogel structure and elasticity” for short) [2] was “could still form a hydrogel structure but with weaker elasticity”.
In the case of IIIIIGSIIGOGGGEGPGGGV [SEQ ID NO.: 5], the “hydrogel structure and elasticity” value [2] was “could still form a hydrogel structure but with weaker elasticity”.
For IIIIIGSIIGOGGGEGPGGV [SEQ ID NO.: 3], the “time at which significant sedimentation of erythrocytes was shown” value (erythrocytes [3]) was 32 h, the erythrocyte distribution (erythrocytes [4]; Tube B: 0.05 wt% peptide alone, no initiator, 1×10^7/mL erythrocytes, 4 hours) was “significant sedimentation” and the erythrocyte distribution (erythrocytes [4]; Tube C: 0.05 wt.% peptide with lysine) was “stereoscopic distribution”. For the same molecule, the erythrocyte distribution (erythrocytes [4]; Tube D: 0.05 wt.% peptide with gentamicin) was “stereoscopic distribution”, the erythrocyte distribution (erythrocytes [4]; Tube E: 0.05 wt.% peptide with polylysine) was “stereoscopic distribution” and the erythrocyte distribution (erythrocytes [4]; Tube F: 0.05 wt.% peptide with fibrinogen) was “three-dimensional stereoscopic dispersion of the erythrocytes”.
In the case of IIIIIGSIIGOGGGEGPGV [SEQ ID NO.: 6], the “hydrogel structure and elasticity” value [2] was “could still form a hydrogel structure but with weaker elasticity”.
